The results in this text go back to ChEMBL document CHEMBL4732242 (Eur J Med Chem, 2021).

The IC50 is the concentration needed to halve the response being measured.

Experiment [1] deals with Homeodomain-interacting protein kinase 2 (Homo sapiens, UniProt Q9H2X6). In words: Inhibition of human recombinant HIPK2 using myelin substrate by radiometric scintillation assay.
The target of experiment [2] is Dual specificity protein kinase CLK2 (Homo sapiens, UniProt P49760). In words: Inhibition of human recombinant CLK2 using YRRAAVPPSPSLSR substrate by radiometric scintillation assay.
The target of experiment [3] is T1, Dual specificity tyrosine-phosphorylation-regulated kinase 2 (Homo sapiens, UniProt Q92630).
T1 sequence (Q92630 whole entry): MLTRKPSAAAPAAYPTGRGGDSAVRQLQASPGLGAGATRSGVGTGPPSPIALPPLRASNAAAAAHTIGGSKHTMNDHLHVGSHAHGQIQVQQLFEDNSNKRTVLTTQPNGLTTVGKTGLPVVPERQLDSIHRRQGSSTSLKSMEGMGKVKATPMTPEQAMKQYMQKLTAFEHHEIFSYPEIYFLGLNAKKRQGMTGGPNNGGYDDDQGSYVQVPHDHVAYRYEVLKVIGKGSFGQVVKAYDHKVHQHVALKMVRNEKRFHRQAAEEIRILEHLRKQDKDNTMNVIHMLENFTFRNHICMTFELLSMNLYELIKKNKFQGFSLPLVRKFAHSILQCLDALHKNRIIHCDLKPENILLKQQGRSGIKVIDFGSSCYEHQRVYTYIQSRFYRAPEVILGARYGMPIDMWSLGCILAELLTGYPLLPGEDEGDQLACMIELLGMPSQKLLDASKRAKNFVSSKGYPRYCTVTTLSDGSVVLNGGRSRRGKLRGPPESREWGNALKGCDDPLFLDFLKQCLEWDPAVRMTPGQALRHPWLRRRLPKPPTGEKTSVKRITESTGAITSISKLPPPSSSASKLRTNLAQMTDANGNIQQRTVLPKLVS
In words: Inhibition of human full length recombinant DYRK2 using casein substrate by radiometric scintillation assay.

Experiment [4] addresses Dual specificity protein kinase CLK4 (Homo sapiens, UniProt Q9HAZ1). In words: Inhibition of human recombinant CLK4 using YRRAAVPPSPSLS substrate by radiometric scintillation assay.
Experiment [5] has as its target Homeodomain-interacting protein kinase 1 (Homo sapiens, UniProt Q86Z02). In words: Inhibition of human recombinant HIPK1 using myelin substrate by radiometric scintillation assay.
The target in experiment [6] is Homeodomain-interacting protein kinase 3 (Homo sapiens, UniProt Q9H422). In words: Inhibition of human recombinant HIPK3 using myelin substrate by radiometric scintillation assay.
For experiment [7], the target named is Dual specificity protein kinase CLK1 (Homo sapiens, UniProt P49759). In words: Inhibition of human recombinant CLK1 using ERMRPRKRQGSVR substrate by radiometric scintillation assay.
For experiment [8], the target named is Dual specificity protein kinase CLK3 (Homo sapiens, UniProt P49761). In words: Inhibition of human full length recombinant CLK3 using ERMRPRKRQGSVR substrate by radiometric scintillation assay.
Experiment [9] has as its target Dual specificity tyrosine-phosphorylation-regulated kinase 1B (Homo sapiens, UniProt Q9Y463). In words: Inhibition of human full length recombinant DYRK1B using RRRFRPASPLRGPP substrate by radiometric scintillation assay.
In experiment [10] the target is Dual specificity tyrosine-phosphorylation-regulated kinase 1A (Homo sapiens, UniProt Q13627). In words: Inhibition of human full length recombinant DYRK1A using RRRFRPASPLRGPP substrate by radiometric scintillation assay.

Chain of Homeodomain-interacting protein kinase 3 (Q9H422 whole entry): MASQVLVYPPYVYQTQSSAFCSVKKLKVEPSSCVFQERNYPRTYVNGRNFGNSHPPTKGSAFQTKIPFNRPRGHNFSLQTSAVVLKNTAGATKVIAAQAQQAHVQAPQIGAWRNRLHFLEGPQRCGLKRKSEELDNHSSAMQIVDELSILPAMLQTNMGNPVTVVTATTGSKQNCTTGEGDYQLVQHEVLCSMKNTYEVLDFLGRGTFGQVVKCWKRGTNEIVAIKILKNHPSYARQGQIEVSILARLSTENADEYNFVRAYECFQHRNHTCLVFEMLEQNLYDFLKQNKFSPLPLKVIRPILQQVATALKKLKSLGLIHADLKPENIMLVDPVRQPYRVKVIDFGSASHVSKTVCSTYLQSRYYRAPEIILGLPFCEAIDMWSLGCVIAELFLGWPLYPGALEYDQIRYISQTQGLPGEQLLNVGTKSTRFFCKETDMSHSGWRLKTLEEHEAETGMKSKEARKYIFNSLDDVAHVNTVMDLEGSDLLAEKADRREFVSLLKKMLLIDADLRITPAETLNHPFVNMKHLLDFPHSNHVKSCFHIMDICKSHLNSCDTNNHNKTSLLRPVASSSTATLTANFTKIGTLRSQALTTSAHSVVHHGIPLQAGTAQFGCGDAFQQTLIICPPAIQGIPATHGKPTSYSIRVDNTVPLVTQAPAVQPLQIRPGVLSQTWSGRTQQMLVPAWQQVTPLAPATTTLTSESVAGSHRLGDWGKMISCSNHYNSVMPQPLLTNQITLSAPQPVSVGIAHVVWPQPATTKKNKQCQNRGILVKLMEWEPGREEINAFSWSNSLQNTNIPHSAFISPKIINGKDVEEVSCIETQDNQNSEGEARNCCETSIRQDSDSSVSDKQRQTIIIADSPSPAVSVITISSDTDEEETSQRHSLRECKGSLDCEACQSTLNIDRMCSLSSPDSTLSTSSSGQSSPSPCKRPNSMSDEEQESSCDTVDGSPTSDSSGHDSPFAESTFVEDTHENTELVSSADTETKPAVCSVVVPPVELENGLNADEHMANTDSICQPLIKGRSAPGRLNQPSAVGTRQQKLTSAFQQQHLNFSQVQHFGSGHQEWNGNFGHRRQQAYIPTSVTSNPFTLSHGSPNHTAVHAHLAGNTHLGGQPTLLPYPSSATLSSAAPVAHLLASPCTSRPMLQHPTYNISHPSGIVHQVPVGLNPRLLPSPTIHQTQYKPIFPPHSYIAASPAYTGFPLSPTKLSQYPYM
Chain of Dual specificity protein kinase CLK4 (Q9HAZ1 whole entry): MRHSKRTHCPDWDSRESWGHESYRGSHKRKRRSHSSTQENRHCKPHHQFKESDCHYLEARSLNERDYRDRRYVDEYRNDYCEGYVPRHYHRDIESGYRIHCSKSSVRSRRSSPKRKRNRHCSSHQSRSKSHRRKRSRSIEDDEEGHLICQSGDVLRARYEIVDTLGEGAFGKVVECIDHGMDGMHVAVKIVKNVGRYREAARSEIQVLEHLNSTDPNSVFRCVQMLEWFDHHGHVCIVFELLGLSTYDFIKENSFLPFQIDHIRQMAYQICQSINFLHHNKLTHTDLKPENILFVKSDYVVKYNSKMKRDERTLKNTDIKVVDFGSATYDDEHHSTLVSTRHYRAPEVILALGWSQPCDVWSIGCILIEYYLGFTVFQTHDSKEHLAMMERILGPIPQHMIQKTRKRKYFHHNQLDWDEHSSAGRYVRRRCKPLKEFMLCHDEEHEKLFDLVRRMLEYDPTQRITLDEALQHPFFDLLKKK
Chain of Dual specificity protein kinase CLK2 (P49760 whole entry): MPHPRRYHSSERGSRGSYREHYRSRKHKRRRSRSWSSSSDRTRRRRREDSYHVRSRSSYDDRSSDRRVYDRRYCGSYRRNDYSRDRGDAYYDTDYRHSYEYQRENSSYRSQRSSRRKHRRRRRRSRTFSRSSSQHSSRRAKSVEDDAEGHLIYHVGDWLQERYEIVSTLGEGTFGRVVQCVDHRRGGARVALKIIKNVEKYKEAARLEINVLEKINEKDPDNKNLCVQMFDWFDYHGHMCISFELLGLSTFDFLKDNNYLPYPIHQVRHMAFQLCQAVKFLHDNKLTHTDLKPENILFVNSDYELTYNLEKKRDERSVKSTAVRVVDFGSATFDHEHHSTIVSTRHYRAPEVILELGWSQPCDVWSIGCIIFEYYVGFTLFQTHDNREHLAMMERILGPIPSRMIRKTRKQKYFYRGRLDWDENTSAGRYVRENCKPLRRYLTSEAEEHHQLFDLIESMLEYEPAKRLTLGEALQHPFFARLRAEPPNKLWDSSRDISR
Chain of Dual specificity tyrosine-phosphorylation-regulated kinase 1B (Q9Y463 whole entry): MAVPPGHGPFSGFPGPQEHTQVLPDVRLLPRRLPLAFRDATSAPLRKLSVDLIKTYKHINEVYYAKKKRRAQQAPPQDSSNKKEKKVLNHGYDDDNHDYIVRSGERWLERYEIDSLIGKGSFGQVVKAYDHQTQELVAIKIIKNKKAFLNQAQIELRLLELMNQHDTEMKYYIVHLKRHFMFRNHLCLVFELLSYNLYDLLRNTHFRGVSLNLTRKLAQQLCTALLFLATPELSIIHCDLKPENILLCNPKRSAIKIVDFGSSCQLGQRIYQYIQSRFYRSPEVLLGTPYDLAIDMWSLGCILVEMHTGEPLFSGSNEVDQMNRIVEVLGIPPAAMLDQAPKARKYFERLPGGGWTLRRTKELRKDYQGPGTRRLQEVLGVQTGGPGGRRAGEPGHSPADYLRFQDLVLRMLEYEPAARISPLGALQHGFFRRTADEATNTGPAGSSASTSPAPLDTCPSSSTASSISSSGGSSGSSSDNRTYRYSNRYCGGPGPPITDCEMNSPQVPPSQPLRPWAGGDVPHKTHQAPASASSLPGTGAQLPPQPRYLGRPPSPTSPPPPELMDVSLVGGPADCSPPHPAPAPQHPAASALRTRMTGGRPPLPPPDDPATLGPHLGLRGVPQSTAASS
Chain of Dual specificity protein kinase CLK3 (P49761 whole entry): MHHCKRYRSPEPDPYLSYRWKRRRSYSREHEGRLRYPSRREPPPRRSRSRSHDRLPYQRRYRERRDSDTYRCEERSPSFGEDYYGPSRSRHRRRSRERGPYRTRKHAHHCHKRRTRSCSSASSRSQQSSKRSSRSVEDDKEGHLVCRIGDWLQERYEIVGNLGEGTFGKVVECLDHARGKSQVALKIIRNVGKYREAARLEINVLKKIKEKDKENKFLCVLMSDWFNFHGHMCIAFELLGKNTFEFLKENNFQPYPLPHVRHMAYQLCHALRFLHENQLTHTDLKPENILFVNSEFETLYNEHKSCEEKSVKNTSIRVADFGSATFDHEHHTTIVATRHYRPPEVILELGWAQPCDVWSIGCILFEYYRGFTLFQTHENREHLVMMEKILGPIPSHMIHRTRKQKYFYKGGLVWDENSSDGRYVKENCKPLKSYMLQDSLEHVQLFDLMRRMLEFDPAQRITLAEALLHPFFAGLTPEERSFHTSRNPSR
Chain of Homeodomain-interacting protein kinase 2 (Q9H2X6 whole entry): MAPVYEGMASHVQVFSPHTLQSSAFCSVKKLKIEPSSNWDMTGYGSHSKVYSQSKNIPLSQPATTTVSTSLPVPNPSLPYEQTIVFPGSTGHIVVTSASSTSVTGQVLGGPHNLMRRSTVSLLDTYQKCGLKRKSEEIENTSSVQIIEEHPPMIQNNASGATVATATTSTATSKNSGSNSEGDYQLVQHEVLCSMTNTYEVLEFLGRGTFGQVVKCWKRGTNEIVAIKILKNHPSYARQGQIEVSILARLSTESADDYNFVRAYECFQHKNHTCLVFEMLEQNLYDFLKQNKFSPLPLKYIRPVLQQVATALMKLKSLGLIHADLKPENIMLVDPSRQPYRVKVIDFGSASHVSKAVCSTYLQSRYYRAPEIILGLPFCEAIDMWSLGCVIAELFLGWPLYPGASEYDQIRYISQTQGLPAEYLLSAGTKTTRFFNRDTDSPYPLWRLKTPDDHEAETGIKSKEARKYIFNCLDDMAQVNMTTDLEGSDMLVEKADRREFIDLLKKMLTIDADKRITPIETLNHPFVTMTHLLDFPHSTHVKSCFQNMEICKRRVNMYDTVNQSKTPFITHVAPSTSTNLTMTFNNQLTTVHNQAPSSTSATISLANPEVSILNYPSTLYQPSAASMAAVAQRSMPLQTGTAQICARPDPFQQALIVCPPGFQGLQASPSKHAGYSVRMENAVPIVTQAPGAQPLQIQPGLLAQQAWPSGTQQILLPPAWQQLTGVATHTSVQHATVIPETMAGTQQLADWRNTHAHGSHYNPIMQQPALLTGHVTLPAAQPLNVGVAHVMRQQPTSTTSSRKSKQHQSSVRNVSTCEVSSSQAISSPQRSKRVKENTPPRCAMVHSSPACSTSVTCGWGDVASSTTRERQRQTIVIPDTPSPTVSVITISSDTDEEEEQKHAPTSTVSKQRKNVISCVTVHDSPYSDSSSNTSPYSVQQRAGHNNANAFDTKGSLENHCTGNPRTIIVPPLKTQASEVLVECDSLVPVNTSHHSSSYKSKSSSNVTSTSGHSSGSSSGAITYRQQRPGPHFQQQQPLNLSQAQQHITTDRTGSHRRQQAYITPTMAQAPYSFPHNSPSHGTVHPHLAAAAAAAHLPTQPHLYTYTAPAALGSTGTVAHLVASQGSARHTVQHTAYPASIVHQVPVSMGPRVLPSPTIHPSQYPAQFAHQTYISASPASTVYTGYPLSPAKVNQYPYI
Chain of Dual specificity protein kinase CLK1 (P49759 whole entry): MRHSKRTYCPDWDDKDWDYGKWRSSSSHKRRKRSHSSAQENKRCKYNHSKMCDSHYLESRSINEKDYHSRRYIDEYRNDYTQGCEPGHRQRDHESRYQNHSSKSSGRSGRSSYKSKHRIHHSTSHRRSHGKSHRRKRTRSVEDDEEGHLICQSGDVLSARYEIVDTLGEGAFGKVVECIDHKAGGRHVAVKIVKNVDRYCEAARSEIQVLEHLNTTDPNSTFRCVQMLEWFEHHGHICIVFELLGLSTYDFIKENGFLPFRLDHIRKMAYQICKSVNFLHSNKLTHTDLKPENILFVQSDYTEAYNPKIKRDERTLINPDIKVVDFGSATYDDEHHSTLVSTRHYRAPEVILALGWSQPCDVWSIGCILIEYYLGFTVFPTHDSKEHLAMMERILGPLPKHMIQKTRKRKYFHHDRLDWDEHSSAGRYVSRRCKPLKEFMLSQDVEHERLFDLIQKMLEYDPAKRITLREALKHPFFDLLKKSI

With `COc1ccc(-c2coc3ccc(-c4cn[nH]c4)nc23)cc1`, the IC50 in experiment [1] was found to be 15 nM; in [2] it was 39 nM; in experiment [3], 1000 nM; in experiment [4] it was 46 nM; in experiment [5] it was 33 nM; in experiment [6] it was 66 nM.

For the compound `c1ccc(-c2ccc(-c3coc4ccc(-c5cn[nH]c5)nc34)cc2)cc1`, the IC50 was 172 nM in experiment [1]; 114 nM in experiment [7]; 529 nM in [2]; > 3000 nM in [8]; > 3000 nM in experiment [3]; 126 nM in [4]. The IC50 was 278 nM in [5], > 3000 nM in experiment [9], > 3000 nM in experiment [10] and 807 nM in experiment [6].

On to `Cn1cc(-c2ccc3occ(-c4ccc(C(C)(C)C)cc4)c3n2)cn1`, for which the IC50 in [1], in [7], in [2], in experiment [8], in [3] and in experiment [4] was > 3000 nM each time. Also, the IC50 in [5], in [9], in experiment [10] and in experiment [6] was > 3000 nM in each case.

As for `Cn1cc(-c2ccc3occ(-c4ccc(C(C)(C)C)cc4)c3n2)nn1`, the IC50 in experiment [1], in experiment [7], in experiment [2], in [8], in [3] and in experiment [4] was > 3000 nM in each case. Moreover, the IC50 in experiment [5], in [9], in [10] and in experiment [6] was > 3000 nM each time.

For `c1ccc2cc(-c3coc4ccc(-c5cn[nH]c5)nc34)ccc2c1`, the IC50 turned out to be 5 nM in experiment [1]; 25 nM in experiment [2]; 1430 nM in experiment [3]; 31 nM in experiment [4]; 16 nM in [5]; 38 nM in experiment [6].

Take `c1ccc(Cc2ccc(-c3coc4ccc(-c5cn[nH]c5)nc34)cc2)cc1`: the IC50 is 484 nM in experiment [1]; 450 nM in experiment [7]; 1840 nM in [2]; > 3000 nM in [8]; > 3000 nM in [3]; 355 nM in experiment [4]. Moreover, the IC50 was 921 nM in experiment [5], > 3000 nM in experiment [9], > 3000 nM in experiment [10] and > 3000 nM in [6].

For `CC(C)(C)c1ccc(-c2coc3ccc(-c4cc[nH]n4)nc23)cc1`, the IC50 in experiment [1] was 1280 nM; in experiment [7] it was > 3000 nM; in [2], > 3000 nM; in experiment [8] it was > 3000 nM; in experiment [3], > 3000 nM; in experiment [4], > 3000 nM. Moreover, the IC50 in experiment [5], in [9], in experiment [10] and in experiment [6] was > 3000 nM each time.

Regarding `c1n[nH]cc1-c1ccc2occ(-c3ccc(C4CCCCC4)cc3)c2n1`, the IC50 in experiment [1] was 654 nM; in [7] it was 2110 nM; in [2], > 3000 nM; in experiment [8], > 3000 nM; in experiment [3], > 3000 nM; in experiment [4], 776 nM. The half-maximal inhibitory concentration (IC50) in experiment [5], in experiment [9], in experiment [10] and in experiment [6] was > 3000 nM throughout.

On to `CC(C)(C)c1ccc(-c2coc3ccc(-c4cnn(CCN5CCOCC5)c4)nc23)cc1`, for which the IC50 in experiment [1], in [7], in [2], in [8], in experiment [3] and in [4] was > 3000 nM throughout. Moreover, the IC50 in experiment [5], in [9], in experiment [10] and in experiment [6] was > 3000 nM throughout.

For the compound `Cn1cc(-c2coc3ccc(-c4cn[nH]c4)nc23)cn1`, the IC50 in [1] was 28 nM; in [2], 176 nM; in experiment [3] it was 1210 nM; in [4], 45 nM; in [5] it was 235 nM.

As to `CC1(c2ccc(-c3coc4ccc(-c5cn[nH]c5)nc34)cc2)CC1`, the half-maximal inhibitory concentration (IC50) in experiment [1] is 68 nM; in experiment [7], 308 nM; in [2], 155 nM; in experiment [8] it was > 3000 nM; in [3], > 3000 nM; in [4], 320 nM. Moreover, the IC50 in [5] is 220 nM; in experiment [9] it was > 3000 nM; in [10], > 3000 nM; in experiment [6], 441 nM.

As to `c1n[nH]cc1-c1ccc2occ(-c3ccc(C45CC6CC(CC(C6)C4)C5)cc3)c2n1`, the IC50 in experiment [1], in experiment [7], in [2], in experiment [8], in experiment [3] and in experiment [4] was > 3000 nM in each case. In addition, the IC50 in [5], in experiment [9], in [10] and in [6] was > 3000 nM each time.

Regarding `CC(C)(C)c1ccc(-c2coc3ccc(-c4nn[nH]n4)nc23)cc1`, the half-inhibitory concentration (IC50) is 357 nM in [1]; > 3000 nM in experiment [7]; > 3000 nM in experiment [2]; > 3000 nM in experiment [8]; > 3000 nM in [3]; > 3000 nM in experiment [4]. For the same compound, the IC50 in [5] is 545 nM; in experiment [9], > 3000 nM; in [10], > 3000 nM; in experiment [6] it was 720 nM.

`CC(C)(C)c1ccc(-c2coc3ccc(-c4cnsc4)nc23)cc1`: the IC50 in experiment [1], in experiment [7], in experiment [2], in [8], in experiment [3] and in experiment [4] was > 3000 nM each time. The 50% inhibitory concentration (IC50) in experiment [5], in experiment [9], in [10] and in experiment [6] was > 3000 nM in each case.

Consider `CN1CCC(c2cccc(-c3coc4ccc(-c5cnn(C)c5)nc34)c2)CC1`, for which the IC50 in [1] is 260 nM; in experiment [7] it was 169 nM; in experiment [2] it was 667 nM; in experiment [8], > 3000 nM; in experiment [3], > 3000 nM; in experiment [4], 116 nM. For the same compound, the half-maximal inhibitory concentration (IC50) was 354 nM in [5], > 3000 nM in experiment [9], 568 nM in [10] and 692 nM in [6].

With `CC(C)Cc1ccc(-c2coc3ccc(-c4cn[nH]c4)nc23)cc1`, the IC50 in experiment [1] was 501 nM; in [7] it was 671 nM; in experiment [2], 827 nM; in [8], > 3000 nM; in experiment [3] it was > 3000 nM; in [4], 896 nM. For the same compound, the IC50 in experiment [5] is 685 nM; in experiment [9] it was > 3000 nM; in experiment [10], > 3000 nM; in experiment [6], 1230 nM.

As to `Cn1ccc(-c2ccc3occ(-c4ccc(C(C)(C)C)cc4)c3n2)n1`, the IC50 in [1], in [7], in [2], in [8], in experiment [3] and in experiment [4] was > 3000 nM in each case. In addition, the IC50 in experiment [5], in [9], in [10] and in [6] was > 3000 nM throughout.

Consider `C=C(C)c1ccc(-c2coc3ccc(-c4cn[nH]c4)nc23)cc1`, for which the IC50 is 41 nM in experiment [1]; 68 nM in experiment [7]; 40 nM in [2]; > 3000 nM in [8]; > 3000 nM in experiment [3]; 42 nM in experiment [4]. In addition, the IC50 in [5] was 51 nM; in [9], > 3000 nM; in experiment [10] it was 1370 nM; in [6], 65 nM.

For `c1ccc(-c2coc3ccc(-c4cn[nH]c4)nc23)cc1`, the IC50 in experiment [1] worked out at 42 nM; in experiment [2], 72 nM; in [3], 1150 nM; in [4], 41 nM; in experiment [5] it was 62 nM; in experiment [6] it was 128 nM.

In the case of `Cn1cc(-c2ccc3occ(-c4cccc(C5CCNCC5)c4)c3n2)cn1`, the concentration for half-maximal inhibition (IC50) in experiment [1] was 179 nM; in experiment [7] it was 59 nM; in experiment [2], 90 nM; in [8] it was > 3000 nM; in experiment [3] it was > 3000 nM; in experiment [4], 52 nM. The IC50 in experiment [5] was 264 nM; in [9], > 3000 nM; in experiment [10] it was 324 nM; in [6], 300 nM.
